This assay relates to SARS-CoV-2. The assay can be described thus: microbe, parasite or virus in culture. The note with it: Severe acute respiratory syndrome coronavirus 2, Vero C1008, 48 h.

A value given as a limit tells only on which side of the number the result lay.

Consider `CC[C@@]1(O)C(=O)OCc2c1cc1n(c2=O)Cc2cc3c([N+](=O)[O-])cccc3nc2-1` [RUBITECAN], for which the IC50 was greater than 20 µM. Moreover, the IC50 (read-out: pIC50 (converted)) is greater than 20 µM.
Turning to `CN(C)C[C@@H]1CCn2cc(c3ccccc32)C2=C(C(=O)NC2=O)c2cn(c3ccccc23)CCO1` [RUBOXISTAURIN], the IC50 was greater than 20 µM. The IC50 (read-out: pIC50 (converted)) is greater than 20 µM.
In turn, `CNCc1ccc(-c2[nH]c3cc(F)cc4c3c2CCNC4=O)cc1` [RUCAPARIB] gave an IC50 greater than 20 µM. Also, where the note is “read-out: pIC50 (converted)”, the IC50 is greater than 20 µM.
`NC(=O)c1cn(Cc2c(F)cccc2F)nn1` [RUFINAMIDE] displayed an IC50 greater than 20 µM. For the same compound, the IC50 (read-out: pIC50 (converted)) was greater than 20 µM.
The compound `N#CC[C@H](C1CCCC1)n1cc(-c2ncnc3[nH]ccc23)cn1` [RUXOLITINIB] displayed an IC50 greater than 20 µM. In addition, the IC50 (read-out: pIC50 (converted)) is greater than 20 µM.
Consider `CCOC(=O)c1cncn1[C@@H](C)c1ccccc1` [S-ETOMIDATE], for which the IC50 is greater than 20 µM. Besides, the IC50 (read-out: pIC50 (converted)) is greater than 20 µM.
In turn, `CN(c1nc2ccccc2s1)C1CCN(CC(O)COc2ccc(F)cc2)CC1` (configuration not stated) [SABELUZOLE] yielded an IC50 greater than 20 µM. Under “read-out: pIC50 (converted)”, the IC50 was greater than 20 µM.
For `O=C1NS(=O)(=O)c2ccccc21` [SACCHARIN], the IC50 was greater than 20 µM. Further, the IC50 (read-out: pIC50 (converted)) was greater than 20 µM.
In the case of `CCOC(=O)[C@H](C)C[C@@H](Cc1ccc(-c2ccccc2)cc1)NC(=O)CCC(=O)O` [SACUBITRIL], the IC50 is greater than 20 µM. The IC50 (read-out: pIC50 (converted)) is greater than 20 µM.
The compound `OCC(O)Cc1ccc2c(c1)OCO2` (configuration not stated) [SAFROLGLYCOL] yielded an IC50 greater than 20 µM. Besides, the IC50 (read-out: pIC50 (converted)) is greater than 20 µM.
Compound `CC(=O)NC(=O)c1ccccc1O` [SALACETAMIDE] had an IC50 greater than 20 µM. In addition, for the setting “read-out: pIC50 (converted)”, the IC50 was greater than 20 µM.
The compound `OCc1ccccc1O[C@@H]1O[C@H](CO)[C@@H](O)[C@H](O)[C@H]1O` [SALICIN] came in with an IC50 greater than 20 µM. In addition, the IC50 (read-out: pIC50 (converted)) was greater than 20 µM.
`NC(=O)c1ccccc1O` [SALICYLAMIDE] displayed an IC50 greater than 20 µM. Under “read-out: pIC50 (converted)”, the IC50 is greater than 20 µM.
The compound `O=C(Nc1ccccc1)c1ccccc1O` [SALICYLANILIDE] yielded an IC50 greater than 20 µM. Also, the IC50 (read-out: pIC50 (converted)) is greater than 20 µM.
Turning to `O=C(O)c1ccccc1O` [SALICYLIC ACID], the IC50 was greater than 20 µM. Further, the IC50 (read-out: pIC50 (converted)) is greater than 20 µM.
For `O=C(N/N=C/c1ccccc1O)c1ccncc1` [SALINAZID], the IC50 is greater than 20 µM. Also, under “read-out: pIC50 (converted)”, the IC50 is greater than 20 µM.
Compound `CC(C)=CCC/C(C)=C/CC/C(C)=C/CSc1ccccc1C(=O)O` [SALIRASIB] returned an IC50 greater than 20 µM. The IC50 (read-out: pIC50 (converted)) was greater than 20 µM.
In turn, `O=C(Oc1ccccc1C(=O)O)c1ccccc1O` [SALSALATE] returned an IC50 greater than 20 µM. Also, the IC50 (read-out: pIC50 (converted)) is greater than 20 µM.
For the compound `COc1cc2c(cc1O)CCNC2C` (configuration not stated) [SALSOLINE], the IC50 was greater than 20 µM. Besides, the IC50 (read-out: pIC50 (converted)) is greater than 20 µM.
`CC1=C2[C@H]3OC(=O)[C@@H](C)[C@@H]3CC[C@@]2(C)C=CC1=O` [SANTONIN] yielded an IC50 greater than 20 µM. Also, the IC50 (read-out: pIC50 (converted)) was greater than 20 µM.
In the case of `CC(C)n1nc(-c2ccc3oc(N)nc3c2)c2c(N)ncnc21` [SAPANISERTIB], the IC50 was greater than 20 µM. For the same compound, the IC50 (read-out: pIC50 (converted)) was greater than 20 µM.
For the compound `CNC(=O)CN1CCC(Oc2cc3c(Nc4cccc(Cl)c4F)ncnc3cc2OC)CC1` [SAPITINIB], the IC50 is greater than 20 µM. Also, for the setting “read-out: pIC50 (converted)”, the IC50 is greater than 20 µM.
In turn, `C[C@H](O)[C@H](O)[C@H]1CNc2nc(N)[nH]c(=O)c2N1` [SAPROPTERIN] yielded an IC50 greater than 20 µM. In addition, for the setting “read-out: pIC50 (converted)”, the IC50 was greater than 20 µM.
As to `CN1CCN(CCOc2cc(OC3CCOCC3)c3c(Nc4c(Cl)ccc5c4OCO5)ncnc3c2)CC1` [SARACATINIB], the IC50 was greater than 20 µM. Besides, where the note is “read-out: pIC50 (converted)”, the IC50 was greater than 20 µM.
`O=C(O)c1cn(-c2ccc(F)cc2)c2cc(N3CCNCC3)c(F)cc2c1=O` [SARAFLOXACIN] showed an IC50 greater than 20 µM. For the setting “read-out: pIC50 (converted)”, the IC50 was greater than 20 µM.
Turning to `CNCC(=O)O` [SARCOSINE], the IC50 was greater than 20 µM. In addition, the IC50 (read-out: pIC50 (converted)) was greater than 20 µM.
`CON(C)Cc1ccc(O)c2c1C[C@H]1C[C@H]3[C@H](N(C)C)C(O)=C(C(N)=O)C(=O)[C@@]3(O)C(O)=C1C2=O` [SARECYCLINE] gave an IC50 greater than 20 µM. The IC50 (read-out: pIC50 (converted)) is greater than 20 µM.
`COc1cccc(CCc2ccccc2OCC(CN(C)C)OC(=O)CCC(=O)O)c1` (configuration not stated) [SARPOGRELATE] registered an IC50 greater than 20 µM. Also, the IC50 (read-out: pIC50 (converted)) was greater than 20 µM.
`C[C@@H](c1ccc2nccn2c1)n1nnc2ncc(-c3cnn(C)c3)nc21` [SAVOLITINIB] had an IC50 greater than 20 µM. The IC50 (read-out: pIC50 (converted)) was greater than 20 µM.
`N#C[C@@H]1C[C@@H]2C[C@@H]2N1C(=O)[C@@H](N)C12CC3CC(CC(O)(C3)C1)C2` [SAXAGLIPTIN ANHYDROUS] returned an IC50 greater than 20 µM. Further, the IC50 (read-out: pIC50 (converted)) was greater than 20 µM.
The compound `C[S+]([O-])c1ccc(-c2nc(-c3ccc(F)cc3)c(-c3ccncc3)[nH]2)cc1` (configuration not stated) [SB-203580] registered an IC50 greater than 20 µM. Under “read-out: pIC50 (converted)”, the IC50 was greater than 20 µM.
As for `Cc1nc(C(=O)N2CCCC[C@H]2CNC(=O)c2cccc3occc23)c(-c2ccc(F)cc2)s1` [SB-649868], the IC50 is greater than 20 µM. Further, the IC50 (read-out: pIC50 (converted)) is greater than 20 µM.
On to `CCCc1c(OCCCOc2ccc(C(C)=O)c(OC)c2CCC)ccc2c1OC(C(=O)O)CC2` (configuration not stated) [SC-41390], for which the IC50 was greater than 20 µM. For the same compound, the IC50 (read-out: pIC50 (converted)) was greater than 20 µM.
`CN1CCc2cc(Cl)c(O)cc2[C@@H](c2ccccc2)C1` [SCH-23390] yielded an IC50 greater than 20 µM. For the same compound, the IC50 (read-out: pIC50 (converted)) was greater than 20 µM.
In turn, `CC(=O)N1CCC(=C2c3ccc(Cl)cc3CCc3cccnc32)CC1` [SCH-37370] came in with an IC50 greater than 20 µM. The IC50 (read-out: pIC50 (converted)) is greater than 20 µM.
`Cn1cc(-c2cnn3c(N)c(Br)c([C@@H]4CCCNC4)nc23)cn1` [SCH-900776] showed an IC50 greater than 20 µM. Also, for the setting “read-out: pIC50 (converted)”, the IC50 was greater than 20 µM.
For `CN1[C@@H]2C[C@@H](OC(=O)[C@H](CO)c3ccccc3)C[C@H]1[C@@H]1O[C@@H]12` [SCOPOLAMINE], the IC50 is greater than 20 µM. In addition, under “read-out: pIC50 (converted)”, the IC50 was greater than 20 µM.
`COc1cc2ccc(=O)oc2cc1O` [SCOPOLETIN] displayed an IC50 greater than 20 µM. For the same compound, under “read-out: pIC50 (converted)”, the IC50 was greater than 20 µM.
`COc1cc2c(cc1O)[C@@H]1Cc3ccc(OC)c(O)c3CN1CC2` [SCOULERINE]: the IC50 is greater than 20 µM. The IC50 (read-out: pIC50 (converted)) is greater than 20 µM.
The compound `O=C1c2cc(Cl)ccc2OC2CCON12` (configuration not stated) [SECLAZONE] displayed an IC50 greater than 20 µM. The IC50 (read-out: pIC50 (converted)) was greater than 20 µM.
Compound `Cc1ncc([N+](=O)[O-])n1CC(C)O` (configuration not stated) [SECNIDAZOLE] returned an IC50 greater than 20 µM. Further, the IC50 (read-out: pIC50 (converted)) was greater than 20 µM.
The compound `C=CCC1(C(C)CCC)C(=O)NC(=O)NC1=O` (configuration not stated) [SECOBARBITAL] showed an IC50 greater than 20 µM. Further, where the note is “read-out: pIC50 (converted)”, the IC50 was greater than 20 µM.
Consider `O=C1C=C2C=C[C@@H]3C[C@@]2(O1)[C@H]1CCCCN31` [SECURININE], for which the IC50 is greater than 20 µM. Also, the IC50 (read-out: pIC50 (converted)) was greater than 20 µM.
On to `CCCC[C@](C)(CO)Nc1nc(N)nc2cc(F)cnc12` [SELGANTOLIMOD], for which the IC50 was greater than 20 µM. Further, the IC50 (read-out: pIC50 (converted)) is greater than 20 µM.
In the case of `CC[C@H](CO)Nc1nc(NCc2ccccc2)c2ncn(C(C)C)c2n1` [SELICICLIB], the IC50 is greater than 20 µM. Further, where the note is “read-out: pIC50 (converted)”, the IC50 was greater than 20 µM.
With `O=C(/C=C\n1cnc(-c2cc(C(F)(F)F)cc(C(F)(F)F)c2)n1)NNc1cnccn1` [SELINEXOR], the IC50 is greater than 20 µM. Besides, the IC50 (read-out: pIC50 (converted)) is greater than 20 µM.

Values taken from ChEMBL document CHEMBL4651402, “Screening of ~5500 FDA-approved drugs and clinical candidates for anti-SARS-CoV-2 activity” (2021).
